smiles,measurement,setting,value
C[C@H]1[C@H](C)CC[C@]2(C(=O)O[C@@H]3O[C@H](CO[C@@H]4O[C@H](CO)[C@@H](O[C@@H]5O[C@@H](C)[C@H](O)[C@@H](O)[C@H]5O)[C@H](O)[C@H]4O)[C@@H](O)[C@H](O)[C@H]3O)CC[C@]3(C)C(=CC[C@@H]4[C@@]5(C)C[C@@H](O)[C@H](O)[C@@](C)(CO)[C@@H]5CC[C@]43C)[C@H]12,solubility (mole fraction),"in ethanol, 298.15 K",0.00014
same,solubility (mole fraction),"in ethanol, 303.15 K",0.000142
same,solubility (mole fraction),"in ethanol, 308.15 K",0.000146
same,solubility (mole fraction),"in ethanol, 313.15 K",0.000152
same,solubility (mole fraction),"in ethanol, 318.15 K",0.000165
same,solubility (mole fraction),"in ethanol, 323.15 K",0.000176
same,solubility (mole fraction),"in ethanol, 328.15 K",0.000195
same,solubility (mole fraction),"in ethanol, 333.15 K",0.000217
same,solubility (mole fraction),"in methanol, 278.15 K",0.000902
same,solubility (mole fraction),"in methanol, 283.15 K",0.000904
same,solubility (mole fraction),"in methanol, 288.15 K",0.000973
same,solubility (mole fraction),"in methanol, 293.15 K",0.00103
same,solubility (mole fraction),"in methanol, 298.15 K",0.00113
same,solubility (mole fraction),"in methanol, 303.15 K",0.00122
same,solubility (mole fraction),"in methanol, 308.15 K",0.00139
same,solubility (mole fraction),"in methanol, 313.15 K",0.0016
same,solubility (mole fraction),"in methanol, 318.15 K",0.00182
same,solubility (mole fraction),"in methanol, 323.15 K",0.00216
same,solubility (mole fraction),"in methanol, 328.15 K",0.00253
same,solubility (mole fraction),"in n-butanol, 298.15 K",2.44e-05
same,solubility (mole fraction),"in n-butanol, 303.15 K",2.93e-05
same,solubility (mole fraction),"in n-butanol, 308.15 K",3.45e-05
same,solubility (mole fraction),"in n-butanol, 313.15 K",4.22e-05
same,solubility (mole fraction),"in n-butanol, 318.15 K",5.1e-05
same,solubility (mole fraction),"in n-butanol, 323.15 K",6.36e-05
same,solubility (mole fraction),"in n-butanol, 328.15 K",8.03e-05
same,solubility (mole fraction),"in n-butanol, 333.15 K",0.000101
same,solubility (mole fraction),"in n-butanol, 338.15 K",0.000132
same,solubility (mole fraction),"in n-butanol, 343.15 K",0.000175
same,solubility (mole fraction),"in n-propanol, 298.15 K",5.2e-05
same,solubility (mole fraction),"in n-propanol, 303.15 K",6.06e-05
same,solubility (mole fraction),"in n-propanol, 308.15 K",6.78e-05
same,solubility (mole fraction),"in n-propanol, 313.15 K",8.06e-05
same,solubility (mole fraction),"in n-propanol, 318.15 K",9.61e-05
same,solubility (mole fraction),"in n-propanol, 323.15 K",0.000119
same,solubility (mole fraction),"in n-propanol, 328.15 K",0.000144
same,solubility (mole fraction),"in n-propanol, 333.15 K",0.000181
same,solubility (mole fraction),"in n-propanol, 338.15 K",0.00023
same,solubility (mole fraction),"in n-propanol, 343.15 K",0.000304
same,solubility (mole fraction),"in water, 298.15 K",1.9e-06
same,solubility (mole fraction),"in water, 303.15 K",2.1e-06
same,solubility (mole fraction),"in water, 308.15 K",2.5e-06
same,solubility (mole fraction),"in water, 313.15 K",3.1e-06
same,solubility (mole fraction),"in water, 318.15 K",4.2e-06
same,solubility (mole fraction),"in water, 323.15 K",5.4e-06
same,solubility (mole fraction),"in water, 328.15 K",7.1e-06
same,solubility (mole fraction),"in water, 333.15 K",1.02e-05
